Data as given in patent US20250034216A1, “STEREOSELECTIVE COVALENT LIGANDS FOR ONCOGENIC AND IMMUNOLOGICAL PROTEINS” (The Scripps Research Institute, priority 2021, published 2025).

How the values were obtained:
[1] = target: PSME1 and PSME2 (PA28 complex) (Homo sapiens, UniProt Q06323); test: SEC-MS elution profile; format: cell-based; parameters: endogenous in cells; host or cells: 22Rv1; conditions: 22Rv1 cells, 20 μM, 3 h
Protocol: Sample preparation: Cells (adherent: 15 cm dishes, suspension: 2 million cells/mL) were treated with electrophilic probes in situ for indicated times and concentrations (elaborated fragments: 20 μM, 3 h), washed with ice-cold PBS, and flash frozen in liquid nitrogen. Cell pellets were lysed by sonication (8 pulses, 40% power) in 600 μL ice-cold PBS supplemented with cOmplete protease inhibitors (1 tablet/10 mL of PBS), ultracentrifuged for 20 min at 100,000 g, then normalized to a standardized concentration (typically 1.5 to 2.5 mg/mL). Clarified lysate was injected into a Superdex 200 Increase 10/300 GL column attached to an AKTA pure FPLC system. Proteins were fractionated using an isocratic gradient (PBS) running at 0.5 mL/min into 5 fractions 2 mL wide, beginning at 8 mL and ending at 18 mL. Eluate was collected into 15 mL tubes containing 12 mL of acetone at 4C. After completion of one set of 5 fractions, the above protocol was repeated a second time for the remaining 5 fractions. Proteins were precipitated overnight at −20 C, then spun at 4500 g for 20 minutes, yielding a white protein pellet. Acetone/PBS mixture was decanted off the pellets, which were dried at room temperature and then resuspended in 125 μL of 8 M urea, 10 mM DTT in 100 mM EPPS for 15 minutes at 65 degrees, followed by probe sonication to complete resuspension. 6.25 μL of 500 mM iodoacetamide was added to samples for alkylation (30 minutes, 37 C), followed by dilution with 370 μL of 100 mM EPPS, and addition of 2 μg trypsin per fraction, and digestion overnight at 37 C. 70 μL of tryptic digest was aliquoted into a clean microcentrifuge tube, followed by 30 μL of dry acetonitrile and 4.5 μL (5 mg/256 μL) of TMT tag in dry acetonitrile. Samples were labeled at room temperature for 75 minutes, then quenched with 6 μL of 5% hydroxylamine for 15 minutes and acidified with 5 μL of formic acid. The set of 10 samples were then combined into a single tube and evaporated by speed vac. Samples were then desalted and fractionated before analysis by mass spectrometry.
Data processing: Fractional distributions for each peptide-spectra match with a total TMT reporter ion intensity were calculated by dividing the reporter ion intensity for each TMT channel by the summed intensity across the 5 TMT channels corresponding to a single treatment condition (Equation 1). Protein-level SEC elution profiles were then generated by averaging together all unique peptides with a summed reporter ion intensity >5,000. Two unique peptide sequences were required per-protein. Bar graph elution profiles are represented as the mean±standard error of the mean across all replicates. Euclidean distances (SE shift scores, Equation 2) were calculated using the average elution profile for each protein across replicates, combined by treatment condition and cell line. Figures reporting mean elution times used Equation 3 for calculation.
Filtering of SEC-MS data: Replicates were combined based on cell line and treatment condition (probe, concentration, duration) by averaging SEC elution profiles for each protein across all experiments. A coefficient of variation (CV) filter was applied by taking the average the per-fraction CV across all 5 fractions. Proteins with a CV≥0.7 were removed from analysis.

[2] = target: T1, TTC3_C109 (Homo sapiens, UniProt P53804); test: IA-DTB cysteine engagement; format: binding; conditions: 22Rv1 cells, 20 μM probe, 1 h, relative to DMSO
T1 construct: endogenous in cells; host or cells: 22Rv1
T1 sequence (P53804 whole entry): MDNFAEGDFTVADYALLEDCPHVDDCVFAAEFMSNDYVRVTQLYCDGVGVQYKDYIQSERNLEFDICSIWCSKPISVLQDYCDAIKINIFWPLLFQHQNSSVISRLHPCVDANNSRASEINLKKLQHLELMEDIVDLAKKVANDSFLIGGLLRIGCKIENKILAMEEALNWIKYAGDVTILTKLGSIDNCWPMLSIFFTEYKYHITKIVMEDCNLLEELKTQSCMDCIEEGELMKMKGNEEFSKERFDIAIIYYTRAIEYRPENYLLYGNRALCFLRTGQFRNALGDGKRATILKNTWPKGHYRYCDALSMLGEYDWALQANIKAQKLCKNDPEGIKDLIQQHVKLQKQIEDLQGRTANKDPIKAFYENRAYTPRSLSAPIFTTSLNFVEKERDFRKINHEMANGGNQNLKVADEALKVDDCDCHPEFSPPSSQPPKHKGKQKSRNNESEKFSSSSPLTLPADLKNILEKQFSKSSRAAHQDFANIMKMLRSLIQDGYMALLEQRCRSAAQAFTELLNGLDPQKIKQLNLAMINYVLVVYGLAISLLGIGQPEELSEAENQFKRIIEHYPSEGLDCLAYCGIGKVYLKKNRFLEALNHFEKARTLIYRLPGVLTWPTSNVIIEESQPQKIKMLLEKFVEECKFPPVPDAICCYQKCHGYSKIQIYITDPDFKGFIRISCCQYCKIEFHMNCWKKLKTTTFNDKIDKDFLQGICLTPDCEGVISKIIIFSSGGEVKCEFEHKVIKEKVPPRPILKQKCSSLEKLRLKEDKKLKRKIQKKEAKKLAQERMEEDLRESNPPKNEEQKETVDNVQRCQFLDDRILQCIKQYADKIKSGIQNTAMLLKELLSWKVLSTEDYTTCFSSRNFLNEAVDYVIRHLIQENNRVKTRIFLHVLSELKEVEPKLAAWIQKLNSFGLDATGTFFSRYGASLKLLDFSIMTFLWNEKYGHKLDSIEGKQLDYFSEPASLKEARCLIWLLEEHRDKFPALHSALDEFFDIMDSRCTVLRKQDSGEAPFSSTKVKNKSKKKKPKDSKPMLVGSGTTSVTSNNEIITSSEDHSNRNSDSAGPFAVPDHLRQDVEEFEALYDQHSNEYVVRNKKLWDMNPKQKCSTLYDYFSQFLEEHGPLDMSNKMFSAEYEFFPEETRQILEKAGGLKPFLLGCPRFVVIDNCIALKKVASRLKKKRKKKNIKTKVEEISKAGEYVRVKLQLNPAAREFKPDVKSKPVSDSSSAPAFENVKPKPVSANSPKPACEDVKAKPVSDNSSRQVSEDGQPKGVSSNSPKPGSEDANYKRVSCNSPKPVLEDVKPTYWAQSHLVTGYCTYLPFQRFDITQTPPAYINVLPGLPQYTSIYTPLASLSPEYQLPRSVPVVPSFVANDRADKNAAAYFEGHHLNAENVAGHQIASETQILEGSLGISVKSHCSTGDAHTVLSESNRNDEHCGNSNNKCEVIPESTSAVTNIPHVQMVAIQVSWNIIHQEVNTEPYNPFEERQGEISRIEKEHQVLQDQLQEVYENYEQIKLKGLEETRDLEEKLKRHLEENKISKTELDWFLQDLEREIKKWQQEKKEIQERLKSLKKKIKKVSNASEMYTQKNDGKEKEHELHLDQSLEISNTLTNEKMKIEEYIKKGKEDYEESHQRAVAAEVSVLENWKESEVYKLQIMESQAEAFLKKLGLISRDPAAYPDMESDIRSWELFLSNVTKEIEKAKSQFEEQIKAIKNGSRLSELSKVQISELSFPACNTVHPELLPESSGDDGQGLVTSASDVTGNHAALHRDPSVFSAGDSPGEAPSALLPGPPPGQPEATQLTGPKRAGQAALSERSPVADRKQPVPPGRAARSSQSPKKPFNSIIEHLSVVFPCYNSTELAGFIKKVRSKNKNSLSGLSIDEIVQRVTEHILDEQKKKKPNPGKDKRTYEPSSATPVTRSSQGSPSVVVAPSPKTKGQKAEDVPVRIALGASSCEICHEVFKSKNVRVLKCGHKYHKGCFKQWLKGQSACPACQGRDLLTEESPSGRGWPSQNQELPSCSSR
Protocol: (§1) Sample preparation: Cells (adherent: 15 cm dishes, suspension: 2 million cells/mL) were treated with electrophilic probes in situ for indicated times and concentrations, washed with ice-cold PBS, and flash frozen in liquid nitrogen. Cell pellets were lysed by sonication (8 pulses, 40% power) in 500 μL ice-cold PBS supplemented with cOmplete protease inhibitors (1 tablet/10 mL of PBS). Whole cell lysates protein content was measured using a standard DC protein assay (Bio-Rad) and 500 μL (2 mg/mL protein content) were treated with 5 μL of 10 mM 1A-DTB (in DMSO) for 1 h at ambient temperature with occasional vortexing. Samples were methanol-chloroform precipitated with the addition of 500 μL ice-cold MeOH and 200 μL CHCl3, vortexed, and centrifuged (10 min, 10,000 g). Without disrupting the protein disk, both top and bottom layers were aspirated and the protein disk was washed with 1 mL ice-cold MeOH and centrifuged (10 min, 10,000 g). The pellets were allowed to air dry, and then re-suspended in 90 μL buffer (9 M urea, 10 mM DTT, 50 mM TEAB pH 8.5). Samples were reduced by heating at 65 C for 20 minutes and water bath sonicated as needed to resuspend the protein pellets, followed by alkylation via addition of 10 μL (500 mM) iodoacetamide and incubated at 37 C for 30 min with shaking. Samples were briefly centrifuged, and probe sonicated once more to ensure complete resuspension, and then diluted with 300 μL buffer (50 mM TEAB pH 8.5) to reach final concentration of 2 M urea. Trypsin (4 μL of 0.25 μg/μL in trypsin resuspension buffer with 25 mM CaCl2)) was added to each sample and digested at 37 C for 2 h to overnight. Digested samples were then diluted with 300 μL wash buffer (50 mM TEAB pH 8.5, 150 mM NaCl, 0.2% NP-40) containing streptavidin-agarose beads (50 μL of 50% slurry in wash buffer) and were rotated at room temperature for 2 hours. Enriched samples were pelleted by centrifugation (2000 g, 2 min) and transferred to BioSpin columns and washed (3×1 mL wash buffer, 3×1 mL PBS, 3×1 mL water). Enriched peptides were eluted by 300 μL 50% acetonitrile with 0.1% formic acid and eluate was evaporated to dryness via speedvac. IA-DTB labeled and enriched peptides were resuspended in 100 μL EPPS buffer (200 mM, pH 8.0) with 30% acetonitrile, vortexed, and water bath sonicated. Samples were TMT labeled with 3 μL of corresponding TMT tag (5 mg tag resuspended in 256 μL acetonitrile), vortexed, and incubated at room temperature for 1 hour. TMT labeling was quenched with the addition of hydroxylamine (5 μL 5% solution in H2O) and incubated for 15 minutes at room temperature. Samples were then acidified with 5 μL formic acid, combined and dried using a SpeedVac. Samples were desalted via Sep-Pak and then high pH fractionated.
(§2) Data processing: Cysteine engagement ratios (probe vs DMSO) were calculated for each peptide-spectra match by dividing each TMT reporter ion intensity by the average intensity for the channels corresponding to DMSO treatment. Peptide-spectra matches were then grouped based on protein ID and residue number (e.g., PSME1 C22), excluding peptides with summed reporter ion intensities for the DMSO channels <10,000, coefficient of variation for DMSO channels >0.5, and non-tryptic peptide sequences. TMT reporter ion intensities were normalized to the median summed signal intensity across channels.
(§3) Filtering of cysteine data: Replicates were combined based on cell line and treatment condition (probe, concentration, duration) by averaging cysteine engagement ratios across all experiments.

[3] = target: T2, MRPS30_C204 (Homo sapiens, UniProt Q9NP92); test: IA-DTB cysteine engagement; format: binding; conditions: 22Rv1 cells, 20 μM probe, 1 h, relative to DMSO
T2 construct: endogenous in cells; host or cells: 22Rv1
Protocol: as §1, §2, §3

[4] = test system: DDX39A_C86; test: IA-DTB cysteine engagement; format: binding, human; conditions: 22Rv1 cells, 20 μM probe, 1 h, relative to DMSO
Protocol: as §1, with “TMT labeling was quenched with the addition of hydroxylamine (5 μL 5% solution in H2O) and incubated for 15 minutes at room temperature. Samples were then acidified with 5 μL formic acid, combined and dried using a SpeedVac. Samples were desalted via Sep-Pak and then high pH fractionated.” left out
Data processing: Cysteine engagement ratios (probe vs DMSO) were calculated for each peptide-spectra match by dividing each TMT reporter ion intensity by the average intensity for the channels corresponding to DMSO treatment. […]

Chain of PSME1 and PSME2 (PA28 complex) (Q06323 whole entry, the tested form may be a part, one chain of several): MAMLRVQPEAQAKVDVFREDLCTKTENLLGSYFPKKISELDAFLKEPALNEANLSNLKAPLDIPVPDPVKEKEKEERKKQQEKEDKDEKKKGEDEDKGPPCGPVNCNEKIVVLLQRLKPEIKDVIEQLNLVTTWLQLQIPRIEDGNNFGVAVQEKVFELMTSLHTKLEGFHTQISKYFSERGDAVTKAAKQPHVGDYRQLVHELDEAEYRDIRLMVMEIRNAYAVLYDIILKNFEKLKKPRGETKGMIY

% engagement TTC3_C109 [2] [%] | % engagement MRPS30_C204 [3] [%] | SMILES | SEC migration shift of PSME1 and PSME2 [1] | % engagement DDX39A_C86 [4] [%]
80.5 | 74.5 | C=CC(=O)N1C[C@@H](c2ccc(Br)cc2)[C@H]1C(=O)Nc1cccc2cccnc12 [MY-1A, (2S,3R)-1-acryloyl-3-(4-bromophenyl)-N-(quinolin-8-yl)azetidine-2-carboxamide] | None of the other azetidine acrylamide stereoisomers | 44.5
54.5 | −37 | C=CC(=O)N1C[C@H](c2ccc(Br)cc2)[C@@H]1C(=O)Nc1cccc2cccnc12 [MY-1B, (2R,3S)-1-acryloyl-3-(4-bromophenyl)-N-(quinolin-8-yl)azetidine-2-carboxamide] | decreased size shift | 37
21.5 | −41.5 | C=CC(=O)N1C[C@H](c2ccc(Br)cc2)[C@H]1C(=O)Nc1cccc2cccnc12 [MY-3B, (2S,3S)-1-acryloyl-3-(4-bromophenyl)-N-(quinolin-8-yl)azetidine-2-carboxamide] | None of the other azetidine acrylamide stereoisomers | 67.5
 |  | CC#CC(=O)N1C[C@H](c2ccc(Br)cc2)[C@@H]1C(=O)Nc1cccc2cccnc12 [MY-45B, (2R,3S)-3-(4-bromophenyl)-1-(but-2-ynoyl)-N-(quinolin-8-yl)azetidine-2-carboxamide] | caused the expected SEC migration shifts | 
4.5 | 1 | C=CC(=O)N1C[C@H](c2ccc(Br)cc2)[C@H]1C(=O)Nc1cccc2cccnc12 [MY-3A, (2S,3S)-1-acryloyl-3-(4-bromophenyl)-N-(quinolin-8-yl)azetidine-2-carboxamide] | None of the other azetidine acrylamide stereoisomers | 23.5
